This passage reports EC50 results from patent US9630949B2, “Oxoazetidine derivatives, process for the preparation thereof and use thereof in human medicine and in cosmetics” (GALDERMA RESEARCH & DEVELOPMENT, priority 2008, dated 2017).

One assay concerns the target hMC1R (Homo sapiens (Human), UniProt Q01726). The assay can be described thus: Transactivation test: melanocortin receptors (pCRE-Luc luciferase reporter), hMC1R. The settings on record: HEK293 transfected with pCRE-Luc and hMC1R; products tested alone (agonist), 6 h incubation; % activity vs NDP-MSH 10 nM; IA: inactive. The class given is cell-based. The procedure: (§1) Transactivation Test: Melanocortin Receptors
(§2) HEK293 lines are transfected with the pCRE-Luc and hMC1R, hMC3R, hMC4R or hMC5R vectors. The cells are cultured at 37° C., 5% CO2, in DMEM medium supplemented with 10% of foetal calf serum.
(§3) In the presence of an activator (agonist), the melanocortin receptor will activate the cAMP pathway which, via the CRE-Luc vector, will result in the synthesis of luciferase. After the addition of a lysis buffer containing a luminescent substrate for luciferase, it will be possible to measure the luminescence proportional to the degree of activation or of inhibition of the receptor.
(§4) The products are solubilized at 10 mM in DMSO. They are tested in the form of dose-response at a final DMSO concentration of 0.1%. The range comprising 10 points and one zero begins at 10 μM with 4-fold dilutions. For testing agonists, the products are tested alone. For determining the behaviour of antagonists, the products of interest are tested in the presence of 1 nM NDP-MSH (reference agonist). The cells are seeded at a rate of 5000 cells per well (384 well plate) in serum-free DMEM medium, and incubated overnight at 37° C., 5% CO2.
(§5) The products and the reference ligand (NDP-MSH) are added the following day, and the plates are again incubated for 6 h at 37° C., 5% CO2. After the addition of lysis buffer containing luciferin, the plates are read on a Top-Count instrument. The results are standardized as % activity using the 100% (cells+NDP-MSH at 10 nM) and 0% (cells alone) controls. An EC50 is calculated for each product using the XLFit software. The results are given in nM.

Another assay deals with hMC4R (Homo sapiens (Human), UniProt P32245). Nature of the assay: Transactivation test: melanocortin receptors (pCRE-Luc luciferase reporter), hMC4R. The following applies: HEK293 transfected with pCRE-Luc and hMC4R; products tested alone (agonist), 6 h incubation; % activity vs NDP-MSH 10 nM; IA: inactive. The class given is cell-based. As to the method:
as §1, §2, §3, §4, §5

Where a name gives a salt, the structure may show the parent alone.

Chain of hMC4R (P32245 whole entry): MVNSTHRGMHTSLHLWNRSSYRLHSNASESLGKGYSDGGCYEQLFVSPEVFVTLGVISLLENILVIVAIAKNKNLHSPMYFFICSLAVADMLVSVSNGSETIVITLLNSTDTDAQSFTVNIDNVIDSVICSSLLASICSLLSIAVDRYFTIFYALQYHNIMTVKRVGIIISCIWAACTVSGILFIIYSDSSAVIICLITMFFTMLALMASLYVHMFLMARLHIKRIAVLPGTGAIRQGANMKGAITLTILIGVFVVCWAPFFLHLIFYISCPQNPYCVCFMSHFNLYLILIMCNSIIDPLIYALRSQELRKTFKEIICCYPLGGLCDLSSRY
Chain of hMC1R (Q01726 whole entry): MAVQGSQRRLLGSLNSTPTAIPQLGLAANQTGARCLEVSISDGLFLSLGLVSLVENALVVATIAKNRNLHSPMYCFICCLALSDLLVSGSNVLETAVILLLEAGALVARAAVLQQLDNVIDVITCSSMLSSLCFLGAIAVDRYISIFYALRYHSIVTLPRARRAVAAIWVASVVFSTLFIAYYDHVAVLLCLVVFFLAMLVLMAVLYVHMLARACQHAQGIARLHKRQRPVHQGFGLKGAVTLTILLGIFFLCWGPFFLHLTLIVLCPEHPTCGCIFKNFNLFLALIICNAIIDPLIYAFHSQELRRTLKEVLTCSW

The EC50 is the concentration that produces a half-maximal response. Low readings indicate greater potency, high ones weaker potency. As for `CCCCOC1(c2ccc(F)cc2)CN(C(=O)[C@@H](Cc2ccc(F)cc2)NC(=O)CCc2c[nH]cn2)C1` [Compound 32, N-[(R)-2-[3-butoxy-3-(4-fluorophenyl)azetidin-1-yl]-1-(4-fluorobenzyl)-2-oxoethyl]-3-(1H-imidazol-4-yl)propionamide], the 50% effective concentration (EC50) was found to be 1 µM on hMC1R and 4 µM on hMC4R.
On to `CCCCCC1(c2ccccc2)CN(C(=O)[C@@H](Cc2ccc(Cl)cc2)NC(=O)CCc2c[nH]cn2)C1` [Compound 45, N-[(R)-1-(4-chlorobenzyl)-2-oxo-2-(3-pentyl-3-phenylazetidin-1-yl)ethyl]-3-(1H-imidazol-4-yl)propionamide], for which the 50% effective concentration (EC50) on hMC1R and at hMC4R was 2 µM in each case.
In the case of `CCCC(=O)OC1(c2ccccc2)CN(C(=O)[C@H](Cc2ccc(OC)cc2)NC(=O)[C@H](Cc2c[nH]cn2)NC(=O)c2ccccc2)C1` [Compound 1, 1-[(S)-2-[(S)-2-benzoylamino-3-(1H-imidazol-4-yl)propionylamino]-3-(4-methoxyphenyl)propionyl]-3-phenylazetidin-3-yl ester of butyric acid], a half-maximal effect at hMC1R (EC50) was put at 0.5 µM. In other words, the sub-micromolar range.
With `CCCCCC1(c2cccc(F)c2)CN(C(=O)[C@@H](Cc2ccc(OC)cc2)NC(=O)CCc2c[nH]cn2)C1` [Compound 55, N-[(R)-2-[3-(3-fluorophenyl)-3-pentylazetidin-1-yl]-1-(4-methoxybenzyl)-2-oxoethyl]-3-(1H-imidazol-4-yl)propionamide], the figures for the EC50 at hMC1R and at hMC4R were 0.12 µM and 1 µM, respectively.
Turning to `COc1ccc(C[C@H](NC(=O)[C@H](Cc2c[nH]cn2)NC(=O)c2ccccc2)C(=O)N2CC(O)(c3ccccc3C)C2)cc1` [Compound 4, N-[(S)-1-[(S)-2-(3-hydroxy-3-o-tolylazetidin-1-yl)-1-(4-methoxybenzyl)-2-oxoethylcarbamoyl]-2-(1H-imidazol-4-yl)ethyl]benzamide], the concentration giving a half-maximal response (EC50) at hMC1R turned out to be 0.25 µM; on hMC4R, 4 µM.
For `CCCCOC1(c2ccccc2C)CN(C(=O)[C@@H](Cc2ccc(OC)cc2)NC(=O)CC(O)c2c[nH]cn2)C1` (stereo partly drawn) [Compound 74, N-[(R)-2-(3-Butoxy-3-o-tolylazetidin-1-yl)-1-(4-methoxybenzyl)-2-oxoethyl]-3-hydroxy-3-(1H-imidazol-4-yl)propionamide], in that order: 0.25 µM and 8 µM.
Turning to `CCCCOC1(c2ccccc2C)CN(C(=O)[C@H](Cc2ccc(OC)cc2)NC(=O)[C@H](Cc2c[nH]cn2)NC(=O)c2ccccc2)C1` [Compound 2, N-[(S)-1-[(S)-2-(3-butoxy-3-o-tolylazetidin-1-yl)-1-(4-methoxybenzyl)-2-oxoethylcarbamoyl]-2-(1H-imidazol-4-yl)ethyl]benzamide], the half-maximal effective concentration (EC50) on hMC1R stood at 0.03 µM; at hMC4R, 8 µM.
Turning to `COc1ccc(C[C@H](NC(=O)CCc2c[nH]cn2)C(=O)N2CC(OCC3CC3)(c3ccccc3C)C2)cc1` [Compound 14, N-[(S)-2-(3-cyclopropylmethoxy-3-o-tolylazetidin-1-yl)-1-(4-methoxybenzyl)-2-oxoethyl]-3-(1H-imidazol-4-yl)propionamide], the 50% effective concentration (EC50) at hMC1R came out at 2 µM; at hMC4R it was 15 µM.
Compound `CCCCCC1(c2ccccc2Cl)CN(C(=O)[C@@H](Cc2ccc(OC)cc2)NC(=O)CCc2c[nH]cn2)C1` [Compound 44, N-[(R)-2-[3-(2-chlorophenyl)-3-pentylazetidin-1-yl]-1-(4-methoxybenzyl)-2-oxoethyl]-3-(1H-imidazol-4-yl)propionamide] came in with an EC50 at hMC1R of 0.03 µM.
Still for that read-out and setting: for `CCCOC1(c2ccccc2C)CN(C(=O)[C@H](Cc2ccc(OC)cc2)NC(=O)CCc2c[nH]cn2)C1` [Compound 21, N-[(S)-1-(4-methoxybenzyl)-2-oxo-2-(3-propoxy-3-o-tolylazetidin-1-yl)ethyl]-3-(1H-imidazol-4-yl)propionamide] the value was 4 µM.
On to `CCCCOC1(c2cccc(F)c2)CN(C(=O)[C@H](Cc2ccc(OC)cc2)NC(=O)[C@H](Cc2c[nH]cn2)NC(=O)c2ccccc2)C1` [Compound 9, N-[(S)-1-[(S)-2-[3-butoxy-3-(3-fluorophenyl)azetidin-1-yl]-1-(4-methoxybenzyl)-2-oxoethylcarbamoyl]-2-(1H-imidazol-4-yl)ethyl]benzamide], for which the EC50 turned out to be 0.12 µM at hMC1R and 1 µM on hMC4R.
Regarding `CCCCOC1(c2ccccc2C)CN(C(=O)[C@@H](Cc2ccc(O)cc2)NC(=O)CCc2cnc[nH]2)C1` [Compound 72, N-[(R)-2-(3-Butoxy-3-o-tolylazetidin-1-yl)-1-(4-hydroxybenzyl)-2-oxoethyl]-3-(3H-imidazol-4-yl)propionamide], on hMC1R, the midpoint of the response, the EC50, lay at 2 µM.
Consider `CCCCOC1(c2ccccc2C)CN(C(=O)C(Cc2ccc(OC)cc2)NC(=O)CC(CCC)c2c[nH]cn2)C1` (stereo not shown) [Compound 62, N-[2-(3-butoxy-3-o-tolylazetidin-1-yl)-1-(4-methoxybenzyl)-2-oxoethyl]-3-(1H-imidazol-4-yl)hexyramide], for which the EC50 at hMC4R was 0.5 µM.
Regarding `CCCCOC1(c2ccccc2C)CN(C(=O)[C@@H](Cc2ccc(OC)cc2)NC(=O)C=Cc2c[nH]cn2)C1` [Compound 48, N-[(R)-2-(3-butoxy-3-o-tolylazetidin-1-yl)-1-(4-methoxybenzyl)-2-oxoethyl]-3-(1H-imidazol-4-yl)acrylamide], the EC50 on hMC1R was determined as 4 µM; on hMC4R, 0.5 µM.
Consider `CCCOC1(c2ccccc2C)CN(C(=O)[C@@H](Cc2ccc(OC)cc2)NC(=O)CCc2c[nH]cn2)C1` [Compound 22, N-[(R)-1-(4-methoxybenzyl)-2-oxo-2-(3-propoxy-3-o-tolylazetidin-1-yl)ethyl]-3-(1H-imidazol-4-yl)propionamide], for which the EC50 is 0.12 µM at hMC1R and 10 µM on hMC4R.
As for `CCCCCC1(c2ccccc2F)CN(C(=O)[C@@H](Cc2ccc(OC)cc2)NC(=O)CCc2c[nH]cn2)C1` [Compound 43, N-[(R)-2-[3-(2-fluorophenyl)-3-pentylazetidin-1-yl]-1-(4-methoxybenzyl)-2-oxoethyl]-3-(1H-imidazol-4-yl)propionamide], the EC50 at hMC1R came out at 0.03 µM. This lies in the double-digit nanomolar range.
As for `CCCCOC1(c2ccccc2C)CN(C(=O)C(Cc2ccc(Cl)cc2Cl)NC(=O)CC(CCC)c2c[nH]cn2)C1` (stereo not shown) [Compound 65, N-[2-(3-butoxy-3-o-tolylazetidin-1-yl)-1-(2,4-dichlorobenzyl)-2-oxoethyl]-3-(1H-imidazol-4-yl)hexyramide], the response at hMC4R was half-maximal at 0.1 µM (EC50).
The compound `CCCCCC1(c2ccccc2)CN(C(=O)[C@@H](Cc2ccc(C(F)(F)F)cc2)NC(=O)CCc2c[nH]cn2)C1` [Compound 51, N-[(R)-2-oxo-2-(3-pentyl-3-phenylazetidin-1-yl)-1-(4-trifluoromethylbenzyl)ethyl]-3-(1H-imidazol-4-yl)propionamide] came in with a half-maximal effective concentration (EC50) at hMC1R of 1 µM.
On hMC1R, `CCCCOC1(c2ccccc2C)CN(C(=O)C(Cc2ccc(OC)cc2O)NC(=O)CCc2cnc[nH]2)C1` (stereo not shown) [Compound 70, N-[2-(3-Butoxy-3-o-tolylazetidin-1-yl)-1-(2-hydroxy-4-methoxybenzyl)-2-oxoethyl]-3-(3H-imidazol-4-yl)propionamide trifluoroacetate] yielded an EC50 of 4 µM.
At hMC1R, `O=C(CCc1c[nH]cn1)N[C@H](Cc1ccc(Cl)c(Cl)c1)C(=O)N1CC(O)(c2ccccc2)C1` [Compound 12, N-[(R)-1-(3,4-dichlorobenzyl)-2-(3-hydroxy-3-phenylazetidin-1-yl)-2-oxoethyl]-3-(1H-imidazol-4-yl)propionamide] showed a 50% effective concentration (EC50) of 8 µM. Compared with the last compound, the EC50 is about 2-fold higher.
Compound `CCCCCC1(c2ccc(Cl)c(Cl)c2)CN(C(=O)[C@@H](Cc2ccc(OC)cc2)NC(=O)CCc2c[nH]cn2)C1` [Compound 54, N-[(R)-2-[3-(3,4-dichlorophenyl)-3-pentylazetidin-1-yl]-1-(4-methoxybenzyl)-2-oxoethyl]-3-(1H-imidazol-4-yl)propionamide] registered a 50% effective concentration (EC50) at hMC1R of 0.25 µM.
Same read-out and setting: for `COc1ccc(C[C@H](NC(=O)CCc2c[nH]cn2)C(=O)N2CC(O)(C3CCCCC3)C2)cc1` [Compound 10, N-[(S)-2-(3-cyclohexyl-3-hydroxyazetidin-1-yl)-1-(4-methoxybenzyl)-2-oxoethyl]-3-(1H-imidazol-4-yl)propionamide] the value was 8 µM; for `CCCCCC1(c2ccc(F)cc2)CN(C(=O)[C@@H](Cc2ccc(OC)cc2)NC(=O)CCc2c[nH]cn2)C1` [Compound 38, N-[(R)-2-[3-(4-fluorophenyl)-3-pentylazetidin-1-yl]-1-(4-methoxybenzyl)-2-oxoethyl]-3-(1H-imidazol-4-yl)propionamide], 0.25 µM; for `COc1ccc(C[C@@H](NC(=O)CCc2c[nH]cn2)C(=O)N2CC(O)(c3ccccc3C)C2)cc1` [Compound 29, N-[(R)-2-(3-hydroxy-3-o-tolylazetidin-1-yl)-1-(4-methoxybenzyl)-2-oxoethyl]-3-(1H-imidazol-4-yl)propionamide], 1 µM.
